This is an account of results in patent publication US12331051B2 (priority 2021, dated 2025).

Entries after “also recorded” stand apart in the source; their conditions may differ. Where only a bound is given, the exact number is not on record here.

Data set [1] deals with H3 histaminergic receptor (Homo sapiens, UniProt Q9Y5N1). Nature of the data set: BRET-based G protein dissociation assay. Type of data set: cell-based. The settings on record: percentage of the reference ligand-induced maximal response. (In general: BRET reads energy transfer from a luciferase to a nearby fluorophore.)
The target in data set [2] is T1, Alpha 2B adrenergic receptor (Homo sapiens, UniProt P18089).
T1 construct: expressed in transfected cells; host or cells: HEK-293
T1 sequence (P18089 1-450): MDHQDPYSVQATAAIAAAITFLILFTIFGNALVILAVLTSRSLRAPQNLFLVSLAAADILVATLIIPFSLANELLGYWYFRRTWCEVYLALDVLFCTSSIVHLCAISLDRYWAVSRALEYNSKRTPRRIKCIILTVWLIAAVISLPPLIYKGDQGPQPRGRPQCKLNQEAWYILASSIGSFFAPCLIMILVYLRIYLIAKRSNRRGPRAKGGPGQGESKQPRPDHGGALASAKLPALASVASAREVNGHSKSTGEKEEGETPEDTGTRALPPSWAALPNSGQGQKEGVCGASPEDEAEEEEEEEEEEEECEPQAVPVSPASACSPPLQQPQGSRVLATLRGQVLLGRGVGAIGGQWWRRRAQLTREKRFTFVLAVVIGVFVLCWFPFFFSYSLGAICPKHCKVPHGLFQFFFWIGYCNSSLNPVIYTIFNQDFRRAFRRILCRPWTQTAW
The data set is described as follows: Functional assay in HEK-293 cells (cAMP). Type of data set: cell-based. Here is the method: (§1) Neuro-receptor binding and functional effects of the “E559 polymorph” was examined by analyzing binding affinity [Ki (nM)], functional agonist activity [EC50 (nM)], and functional antagonist activity [IC50 (nM)] against a panel of key receptors in neurophysiological disorders. Binding and functional assays were performed at “E559 polymorph” concentrations of 0.0003, 0.003, 0.01, 0.03, 0.1, 0.3, 1, and 10 μM. In binding assays, cell membrane homogenates, expressing each receptor target, were incubated with the corresponding radio-ligand in absence or presence of several concentration of the “E559 polymorph” compound. The measurement of binding affinity of the “E559 polymorph” is represented in TABLE XIII by Ki (nM) which was calculated as percent inhibition of the binding of a radioactively labeled reference ligand at each receptor. In functional assays the HEK-293 cells expressing each receptor target were suspended in buffer and distribute in microplates and incubated for 30 minutes at room temperature or 37° C. in the presence of buffer alone (basal control), the reference agonist or antagonist, or the “E559 polymorph. Following incubation, the cells were lysed and the appropriate fluorescent probe (Ca2+ flux, cAMP, or IP1) were added for 60 minutes to measure the fluorescence transfer at the appropriate wavelength using a microplate reader. The cellular agonist effect (EC50) was calculated as a percent of control response to a known reference agonist and the cellular antagonist effect (IC50) was calculated as a percent inhibition of control reference agonist response for each receptor.

Data set [3] deals with T2, Alpha 2C adrenergic receptor (Homo sapiens, UniProt P18825).
T2 construct: expressed in transfected cells; host or cells: HEK-293
T2 sequence (P18825 1-462): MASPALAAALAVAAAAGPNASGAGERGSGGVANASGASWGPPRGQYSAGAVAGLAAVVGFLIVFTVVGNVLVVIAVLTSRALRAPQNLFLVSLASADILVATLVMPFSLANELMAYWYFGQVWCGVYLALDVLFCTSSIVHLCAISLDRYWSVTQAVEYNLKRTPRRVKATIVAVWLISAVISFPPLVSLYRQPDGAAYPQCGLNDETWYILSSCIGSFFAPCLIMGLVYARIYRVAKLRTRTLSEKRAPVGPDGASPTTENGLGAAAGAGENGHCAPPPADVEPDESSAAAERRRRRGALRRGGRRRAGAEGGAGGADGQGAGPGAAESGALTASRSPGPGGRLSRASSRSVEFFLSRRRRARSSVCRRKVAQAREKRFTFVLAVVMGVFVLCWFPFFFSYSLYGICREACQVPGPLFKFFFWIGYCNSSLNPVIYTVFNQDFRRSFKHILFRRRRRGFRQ
The data set is described as follows: Functional assay in HEK-293 cells (cAMP). It is filed as cell-based. Here is the method: as §1

The target of another data set is T3, D2S dopamine receptor (Homo sapiens, UniProt P14416).
T3 construct: expressed in transfected cells; host or cells: HEK-293
The data set is described as follows: Functional assay in HEK-293 cells (cAMP). Type of data set: cell-based. How it is done: as §1

Data set [4] concerns the target T4, Serotonin 7 receptor (5-HT7R) (Homo sapiens, UniProt P34969).
T4 construct: expressed in transfected cells; host or cells: HEK-293
The data set is described as follows: Functional assay in HEK-293 cells (cAMP). It is filed as cell-based. Here is the method: as §1

In data set [5] the test system is 5-HT1 receptor subtypes: 5-HT1A, 1B, 1D, 1E, and 1F. Type of data set: cell-based, human. As to conditions: FIG. 15, FIG. 16A/B; listed as E559 polymorph.
For data set [6], the system named is primary rat embryonic cortical neurons. The data set is described as follows: In vitro dendritogenesis and spinogenesis assays, Sholl analysis. It is filed as cell-based. How it is done: (§2) The ability of the “E559 polymorph” to induce neural plasticity was evaluated in vitro. In vitro dendritogenesis and spinogenesis assays were conducted using primary rat embryonic cortical neurons. Briefly, cultured primary cortical neurons (rat) were treated at day in vitro (DIV) 3 for 3 hours with increasing concentrations (1, 10 and 100 nM, 1 and […]) of the “E559 polymorph” and morphological changes in dendritic arbor complexity (dendritogenesis) were assessed at DIV6 by immunofluorescent staining of fixed neurons with microtubule-associated protein 2 (MAP2, a microtubule marker), F-actin (cytoskeletal marker), and phalloidin (actin filament marker) followed by fluorescent microscopy and Sholl analysis of neurons' images. […] The spine density assessments (spinogenesis) were made on DIV 18. The cell viability assessments were made on DIV 6 by using the Neurite Outgrowth Staining Kit which includes fluorescent probes for dead and live neuronal cells. Ketamine was used as a comparator and positive control. Ketamine is known to induce dendritogenesis and its effects on synaptic plasticity are believed to mediate its antidepressant effects (Aguilar-Valles et al., Nature, 2021, 590, p315-319). Representative images of MAP2 stained rat cortical neurons treated with vehicle (no drug control) or with “E559 polymorph” is shown in FIG. 18A.
Horizontal lines in all figure panels represent the means±standard error of the mean (S.E.M.).

Data set [7] concerns cultured primary rat neurons. Nature of the data set: Cell viability, Neurite Outgrowth Staining Kit. Type of data set: cell-based. The settings on record: DIV 6, all tested concentrations. How it is done: as §2
Another data set in a line: DVS hygroscopicity. The settings on record: for DVS (hold at 75% RH) mass increase: crude material, 75% relative humidity, ~5 hr run time. Type of data set: physicochemical.
Another data set concerns the target D1 dopamine receptor (Homo sapiens, UniProt P21728). The data set is described as follows: Radioligand binding, cell membrane homogenates. Details: expressed in transfected cells; host or cells: HEK-293. Here is the method:
Neuro-receptor binding and functional effects of the “E559 polymorph” was examined by analyzing binding affinity [Ki (nM)], functional agonist activity [EC50 (nM)], and functional antagonist activity [IC50 (nM)] against a panel of key receptors in neurophysiological disorders. Binding and functional assays were performed at “E559 polymorph” concentrations of 0.0003, 0.003, 0.01, 0.03, 0.1, 0.3, 1, and 10 μM. In binding assays, cell membrane homogenates, expressing each receptor target, were incubated with the corresponding radio-ligand in absence or presence of several concentration of the “E559 polymorph” compound. The measurement of binding affinity of the “E559 polymorph” is represented in TABLE XIII by Ki (nM) which was calculated as percent inhibition of the binding of a radioactively labeled reference ligand at each receptor. […] Following incubation, the cells were lysed and the appropriate fluorescent probe (Ca2+ flux, cAMP, or IP1) were added for 60 minutes to measure the fluorescence transfer at the appropriate wavelength using a microplate reader. The cellular agonist effect (EC50) was calculated as a percent of control response to a known reference agonist and the cellular antagonist effect (IC50) was calculated as a percent inhibition of control reference agonist response for each receptor.

T3 sequence (P14416 1-414 isoform P14416-2): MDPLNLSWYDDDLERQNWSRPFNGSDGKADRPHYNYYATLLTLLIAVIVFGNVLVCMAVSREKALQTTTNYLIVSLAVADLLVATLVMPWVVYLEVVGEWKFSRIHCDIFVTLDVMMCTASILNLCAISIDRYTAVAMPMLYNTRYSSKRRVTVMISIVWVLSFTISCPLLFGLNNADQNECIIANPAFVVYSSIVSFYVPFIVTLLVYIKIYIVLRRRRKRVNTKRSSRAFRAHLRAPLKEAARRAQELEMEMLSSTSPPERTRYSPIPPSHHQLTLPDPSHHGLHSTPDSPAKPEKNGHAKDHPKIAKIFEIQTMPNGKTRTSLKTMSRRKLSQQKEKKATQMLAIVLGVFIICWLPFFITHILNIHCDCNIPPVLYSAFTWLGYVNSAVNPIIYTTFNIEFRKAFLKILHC
T4 sequence (P34969 whole entry): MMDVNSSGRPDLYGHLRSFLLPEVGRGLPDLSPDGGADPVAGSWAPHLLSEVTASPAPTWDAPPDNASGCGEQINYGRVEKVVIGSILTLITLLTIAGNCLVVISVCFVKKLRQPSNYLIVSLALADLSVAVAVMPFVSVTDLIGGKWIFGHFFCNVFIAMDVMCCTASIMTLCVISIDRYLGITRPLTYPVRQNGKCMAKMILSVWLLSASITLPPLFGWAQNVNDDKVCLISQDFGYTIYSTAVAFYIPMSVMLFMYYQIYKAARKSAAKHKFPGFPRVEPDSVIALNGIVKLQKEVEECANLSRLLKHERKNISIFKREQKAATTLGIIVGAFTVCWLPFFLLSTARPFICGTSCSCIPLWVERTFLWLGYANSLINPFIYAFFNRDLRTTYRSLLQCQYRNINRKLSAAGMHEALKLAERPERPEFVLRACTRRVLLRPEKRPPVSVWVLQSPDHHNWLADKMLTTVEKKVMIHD
Chain of H3 histaminergic receptor (Q9Y5N1 whole entry): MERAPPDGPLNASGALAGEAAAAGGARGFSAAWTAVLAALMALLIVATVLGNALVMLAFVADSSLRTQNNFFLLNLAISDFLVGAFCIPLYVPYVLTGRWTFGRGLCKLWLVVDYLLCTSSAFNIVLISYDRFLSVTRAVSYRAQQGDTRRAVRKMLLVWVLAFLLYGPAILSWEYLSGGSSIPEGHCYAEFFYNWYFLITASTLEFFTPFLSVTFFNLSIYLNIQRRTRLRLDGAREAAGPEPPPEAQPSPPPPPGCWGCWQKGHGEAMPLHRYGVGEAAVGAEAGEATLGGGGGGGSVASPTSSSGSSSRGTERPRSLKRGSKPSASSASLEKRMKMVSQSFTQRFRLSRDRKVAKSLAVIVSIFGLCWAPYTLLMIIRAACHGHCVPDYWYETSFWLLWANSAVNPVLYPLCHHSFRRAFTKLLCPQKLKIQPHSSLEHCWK
Chain of D1 dopamine receptor (P21728 whole entry): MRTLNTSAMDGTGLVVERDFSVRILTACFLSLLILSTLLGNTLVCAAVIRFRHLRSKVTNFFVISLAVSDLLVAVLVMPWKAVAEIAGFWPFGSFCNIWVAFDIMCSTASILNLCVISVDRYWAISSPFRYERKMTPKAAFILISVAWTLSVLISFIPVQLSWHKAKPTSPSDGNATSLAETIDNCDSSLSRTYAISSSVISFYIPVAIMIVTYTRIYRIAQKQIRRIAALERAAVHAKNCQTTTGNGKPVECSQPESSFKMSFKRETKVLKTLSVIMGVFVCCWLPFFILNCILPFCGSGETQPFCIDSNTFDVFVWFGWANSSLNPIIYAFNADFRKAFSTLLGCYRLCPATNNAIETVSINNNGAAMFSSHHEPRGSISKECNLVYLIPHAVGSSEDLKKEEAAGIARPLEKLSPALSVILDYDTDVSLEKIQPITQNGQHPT

Broadly, the Emax is the size of the effect at its maximum, as opposed to the concentration needed. As for `CCN(CC)C(=O)[C@@H]1C=C2c3cccc4[nH]cc(c34)C[C@H]2N(C)C1` [LSD, lysergic acid diethylamide, reference compound], the maximum response (Emax) in data set [1] is 18.6%.

By EC50 is commonly meant the midpoint of the concentration-response curve. A higher EC50 goes with lower potency in that assay. As a reminder, the IC50 is the concentration needed to halve the response being measured. High values mean lower potency, low ones higher potency. By Ki is commonly meant the dissociation constant of the complex between target and ligand, obtained from inhibition or displacement. For `CCN(CC)C(=O)[C@@H]1C=C2c3cccc4[nH]c(Br)c(c34)C[C@H]2N(C)C1` [E559, (5R, 8R)-2-Bromo-9,10-didehydro-N,N-diethyl-6-methylergoline-8-carboxamide hemi-D-tartrate], the EC50 is more than 10 µM in [2], 730 nM in [3], more than 10 µM at D2S dopamine receptor and more than 10 µM in data set [4]. Besides, the half-maximal inhibitory concentration (IC50) in [2] was 3.6 µM; in [3] it was more than 10 µM; on D2S dopamine receptor, more than 10 µM; in data set [4], 240 nM. In data set [5], the “functional activity at 5-HT1 receptor subtypes” value was “moderate to potent agonist across all the 5-HT1 receptor subtypes; also recorded: exhibits the greatest potency (agonism) at 5-HT1F and 5-HT1D receptors”. Further, the “lowest concentration at which increase in neuronal plasticity reached statistical significance” value in [6] (3 hours treatment at DIV3) is 1 µM. Further, the “lowest concentration at which increase in neuronal plasticity was detectable” value in data set [6] (3 hours treatment at DIV3) was 1 nM. In addition, in [6] (DIV6, 1 and 10 μM), the “total length of the dendritic arbor” value is on record as “total length of the dendritic arbor was also increased”. In addition, in [6] (DIV6, 1 and 10 μM significant vs control), the “total dendrites crossing the Sholl radii” value is listed as “significantly increased the number of total dendrites crossing the Sholl radii”. Moreover, in [6] (DIV 18, 3-hour incubation at 1 and 10 μM), the spine density entry is given as “increased the spine density”. The “viability of cultured primary rat neurons (cytotoxic activity)” value in [7] is listed as “no cytotoxic activity was observed at all tested concentrations”. Moreover, the “DVS (0-90-0 2 cycles) max water absorbed” value in the data set “DVS hygroscopicity” (90% RH exposure, ~24 hr run time, listed as D-Tartrate) is given as “absorbed max 7% water”. Also, the “DVS (hold at 75% RH) mass increase” value in the data set “DVS hygroscopicity” is “about 3.4%”; in the data set “DVS hygroscopicity” (listed as D-Tartrate), 3.4% mass increase. This compound showed a Ki at D1 dopamine receptor of 25 nM.
